Measured values taken from ChEMBL document CHEMBL5512599, “Synthetic non-toxic anti-biofilm agents as a strategy in combating bacterial resistance” (Eur J Med Chem, 2023).
≈ marks a conversion by molar mass, not a printed value.

Legend:
[1] = test system: Staphylococcus aureus; assay: Antibacterial activity against Staphylococcus aureus ATCC 6538 assessed as reduction in bacterial growth incubated for 18 to 24 hrs by broth microdilution method; format: functional; conditions: time 18-24 hrs
[2] = Inhibition of Staphylococcus aureus sortase A by FRET assay
[3] = test system: Staphylococcus aureus; assay: Antibacterial activity against Staphylococcus aureus ATCC 25923 assessed as reduction in bacterial growth incubated for 18 to 24 hrs by broth microdilution method; format: functional; conditions: time 18-24 hrs
[4] = test system: Staphylococcus epidermidis; assay: Antibacterial activity against Staphylococcus epidermidis RP62A assessed as reduction in bacterial growth incubated for 18 to 20 hrs by broth microdilution assay; format: functional; conditions: time 18-20 hrs
[5] = test system: Staphylococcus aureus; assay: Antibacterial activity against Staphylococcus aureus ATCC 29213 assessed as reduction in bacterial growth incubated for 18 to 24 hrs by broth microdilution method; format: functional; conditions: time 18-24 hrs
[6] = test system: Staphylococcus aureus; assay: Antibiofilm activity against Staphylococcus aureus ATCC 25923 after 24 hrs by crystal violet staining based assay; format: functional
[7] = test system: Klebsiella pneumoniae; assay: Antibiofilm activity against Klebsiella pneumoniae ATCC 13882 assessed as inhibition of biofilm formation incubated for 24 hrs by crystal violet staining based broth microdilution method; format: functional, organism-based; conditions: ATCC 13882, 24 h
[8] = test system: Klebsiella pneumoniae; assay: Antibacterial activity against Klebsiella pneumoniae ATCC 13882 assessed as fold change in colistin MIC incubated for 16 to 18 hrs by broth microdilution method; format: functional; conditions: time 16-18 hrs
[9] = test system: Staphylococcus aureus; assay: Antibacterial activity against […] Staphylococcus aureus ATCC 29213 assessed as reduction in bacterial growth incubated for 18 hrs by mueller hinton broth dilution method; format: functional, organism-based; conditions: ATCC 29213, 18 h
[10] = test system: Staphylococcus aureus; assay: Antibiofilm activity against Methicillin-sensitive Staphylococcus aureus ATCC 29213 assessed as reduction in biofilm formation at 200 uM incubated for 24 hrs by crystal violet staining based analysis relative to control; format: functional; set-up: scale not given: the % may be the effect or the level left
[11] = test system: Staphylococcus epidermidis; assay: Antimicrobial activity against Staphylococcus epidermidis ATCC 12228 assessed as reduction in microbial growth after 24 hrs by CLSI based broth microdilution method; format: functional
[12] = test system: Staphylococcus epidermidis; assay: Antibiofilm activity against Staphylococcus epidermidis clinical isolate 531/12 assessed as inhibition of biofilm formation measured after 24 hrs by confocal laser scanning microscopy analysis; format: functional, organism-based
[13] = test system: Staphylococcus epidermidis; assay: Antibiofilm activity against Staphylococcus epidermidis clinical isolate 533/12 assessed as inhibition of biofilm formation measured after 24 hrs by confocal laser scanning microscopy analysis; format: functional, organism-based
[14] = test system: Staphylococcus epidermidis; assay: Antibiofilm activity against Staphylococcus epidermidis clinical isolate 523/12 assessed as inhibition of biofilm formation measured after 24 hrs by confocal laser scanning microscopy analysis; format: functional, organism-based
[15] = test system: Staphylococcus epidermidis; assay: Antibiofilm activity against Staphylococcus epidermidis clinical isolate 517/12 assessed as inhibition of biofilm formation measured after 24 hrs by confocal laser scanning microscopy analysis; format: functional, organism-based
[16] = test system: Staphylococcus epidermidis; assay: Antibacterial activity against Staphylococcus epidermidis clinical isolate 528/12 assessed as reduction in bacterial growth measured after 24 hrs by CLSI based broth micro-dilution method; format: functional
[17] = test system: Staphylococcus epidermidis; assay: Antibacterial activity against Staphylococcus epidermidis clinical isolate 532/12 assessed as reduction in bacterial growth measured after 24 hrs by CLSI based broth micro-dilution method; format: functional
[18] = test system: Staphylococcus epidermidis; assay: Antimicrobial activity against Staphylococcus epidermidis ATCC 35984 assessed as reduction in microbial growth after 24 hrs by CLSI based broth microdilution method; format: functional
[19] = test system: Staphylococcus epidermidis; assay: Antibiofilm activity against Staphylococcus epidermidis ATCC 12228 assessed as inhibition of biofilm formation measured after 24 hrs by confocal laser scanning microscopy analysis; format: functional, organism-based; conditions: ATCC 12228, 24 h
[20] = test system: Staphylococcus epidermidis; assay: Antibacterial activity against Staphylococcus epidermidis clinical isolate 533/12 assessed as reduction in bacterial growth measured after 24 hrs by CLSI based broth micro-dilution method; format: functional
[21] = test system: Staphylococcus epidermidis; assay: Antibacterial activity against Staphylococcus epidermidis clinical isolate 531/12 assessed as reduction in bacterial growth measured after 24 hrs by CLSI based broth micro-dilution method; format: functional
[22] = test system: Staphylococcus epidermidis; assay: Antibiofilm activity against Staphylococcus epidermidis clinical isolate 526/12 assessed as inhibition of biofilm formation measured after 24 hrs by confocal laser scanning microscopy analysis; format: functional, organism-based
[23] = test system: Staphylococcus epidermidis; assay: Antibacterial activity against Staphylococcus epidermidis clinical isolate 517/12 assessed as reduction in bacterial growth measured after 24 hrs by CLSI based broth micro-dilution method; format: functional
[24] = test system: Staphylococcus epidermidis; assay: Antibiofilm activity against Staphylococcus epidermidis clinical isolate 519/12 assessed as inhibition of biofilm formation measured after 24 hrs by confocal laser scanning microscopy analysis; format: functional, organism-based
[25] = test system: Staphylococcus epidermidis; assay: Antibiofilm activity against Staphylococcus epidermidis clinical isolate 528/12 assessed as inhibition of biofilm formation measured after 24 hrs by confocal laser scanning microscopy analysis; format: functional, organism-based
[26] = test system: Staphylococcus epidermidis; assay: Antibiofilm activity against Staphylococcus epidermidis clinical isolate 532/12 assessed as inhibition of biofilm formation measured after 24 hrs by confocal laser scanning microscopy analysis; format: functional, organism-based
[27] = test system: Staphylococcus aureus; assay: Antibacterial activity against methicillin-sensitive Staphylococcus aureus ATCC 29213 assessed as reduction in bacterial growth incubated for 18 hrs by mueller hinton broth dilution method; format: functional, organism-based; conditions: ATCC 29213, 18 h

## CC(=O)/C(=N\Nc1ccccc1)C(=O)O
[1]
  MIC: > 270 µM
[2]
  IC50: 80 µM
[3]
  MIC: > 270 µM
[4]
  MIC: > 270 µM
[5]
  MIC: > 270 µM
[6]
  Activity: 60%

## Nc1nccc(-c2cccc(NC(=O)c3cc(Br)cc(Br)c3)c2)n1
[7]
  IC50: 17.4 µM
[8]
  fold change (FC): 32

## Nc1ncc(C#CC2CCCC2)cn1
[9]
  IC50: 72 µM
[10]
  Activity: 85%

## Fc1ccc(NC(=S)Nc2nccs2)cc1Cl
[11]
  MIC: 4 µg/mL
[12]
  IC50: 1.13 µg/mL (≈ 3.93 µM)
[13]
  IC50: 2.88 µg/mL (≈ 10 µM)
[14]
  IC50: 3.14 µg/mL (≈ 10.9 µM)
[15]
  IC50: 0.66 µg/mL (≈ 2.29 µM)
[16]
  MIC: 8 µg/mL (≈ 27.8 µM)
[17]
  MIC: 4 µg/mL (≈ 13.9 µM)
[18]
  MIC: 4 µg/mL
[19]
  IC50: 0.35 µg/mL (≈ 1.22 µM)
[20]
  MIC: 4 µg/mL (≈ 13.9 µM)
[21]
  MIC: 4 µg/mL (≈ 13.9 µM)
[22]
  IC50: 4.95 µg/mL (≈ 17.2 µM)
[23]
  MIC: 8 µg/mL (≈ 27.8 µM)
[24]
  IC50: 2.5 µg/mL (≈ 8.69 µM)
[25]
  IC50: 1.11 µg/mL (≈ 3.86 µM)
[26]
  IC50: 2.21 µg/mL (≈ 7.68 µM)

## CCCCCCCCCC(=O)NCCCc1cnc(N)nc1
[27]
  IC50: 67 µM
[10]
  Activity: 80%
